Test results reported in patent US11406642B2, “DNP and DNP prodrug treatment of neuromuscular, neurodegenerative, autoimmune, developmental, traumatic brain injury, concussion, dry eye disease, hearing loss and/or metabolic diseases” (priority 2016, dated 2022).

Legend:
ion channels = assay: Inhibition of ion channels
From the text: Overt reactive oxygen species (ROSs) can be produced due to noise and certain ototoxic drugs that can damage the hair cells of the ear, resulting in either temporary or permanent hearing loss. Exposure to blast waves and continuous noise not only damaged the inner ear, but caused cell death in the hippocampus, suppressed neurogenesis and impaired memory function. Aging as well can manifest in mitochondrial dysfunction leading to hearing loss. It is emerging that attempts to treat hearing loss by targeting downstream issues is not very effective. In one embodiment, the compositions and methods of the invention relate to targeting oxidative stress upstream at the mitochondria that may be causative for many disorders. There have been a variety of attempts to lower cellular stress, such as administering anti-oxidants, however these drugs have limited tissue penetration into the brain and lower ROSs after they have been formed. […] While not being bound to theory, it is postulated that DNP modulates the mitochondrial membrane potential having a significant impact at preventing ROS formation in isolated mitochondria and in the treated wildtype mice. DNP treatment 3-hours post-ischemia reduced cerebral infarct volume 40% by protecting the penumbra or “threaten tissue” and could provide similar benefits after a blast to protect inner hair cells from eminent cell death. […]

[1] = in rats, general statement; cited from earlier work
[2] = Stability in simulated gastric fluid (SGF), pH 1.2; assay type: in vitro ADME; conditions: pH 1.2, 37° C.
Method: GI: Stability in simulated gastric fluid (USP, 37° C.)
HPLC analysis was carried out on an Agilent 1200 Infinity Series Quatpump, equipped with a photodiode array detector and a computer integrating apparatus. An Inertsil ODS-3 column, C18, 5 μm, 4.6×50 mm (GL Science Inc. Japan) protected with a guard column: Alltima C18, 5 μm, 4.6×7.5 mm (Grace Discovery Sciences, IL, USA) was used as the stationary phase. An isocratic method with a mobile phase consisting of water/acetonitrile (70:30) containing 0.05% formic acid in each was used. A flow rate of 0.9 mL/min was used and detection was carried out at a UV wavelength of 250 nm.
To formulate 1 mg/mL of II-38 in SGF, 3.1 mg of II-38 was dissolved in 0.155 mL of DMSO (i.e. 5%) and added slowly and gradually to a total volume of 2.945 mL of preheated SGF (Table 3) in a cell diffusion chamber preheated to 37° C. The solution was mixed for 30 sec. every half an hour using magnetic stirrer. Samples of 20 μL (20 μg/mL of II-38) were collected at 0, 1, 2, 4, 6 and 8 h. Each sample was mixed with acetonitrile QS to 1 mL, vortex-mixed for 30 sec and centrifuged at 10,000 rpm at room temp. A volume of 10 μL of the supernatant was injected into the HPLC spectrometer.

SMILES | inhibition to ion channels (ion channels) | half-life [1] [h] | stability in SGF [2]
O=[N+]([O-])c1ccc(O)c([N+](=O)[O-])c1 [2,4-DNP, 2,4-dinitrophenol] | no inhibition | ~6 | 
O=C(Oc1ccc([N+](=O)[O-])cc1[N+](=O)[O-])N1CCOCC1 [II-38, 2,4-Dinitrophenyl morpholine-4-carboxylate] |  |  | stable
